Data as given in the NIST ThermoML archive (doi:10.1016/j.jct.2016.05.015).
Numbers after ± are expanded uncertainties.

Assay: xn = mol fraction of the nth substance listed
Details: 100 kPa, Liquid; for viscosity: Capillary tube (Ostwald / Ubbelohde) method; for speed of sound: Frequency=2 MHz, Linear variable-path acoustic interferometer; for mass density: Vibrating tube method

Nc1cccc(Cl)c1 [3-chlorobenzenamine] + Brc1ccccc1
viscosity (303.15 K, x1 = 0.0902): 1.364 ± 0.1 mPa·s
viscosity (303.15 K, x1 = 0.1842): 1.741 ± 0.1 mPa·s
viscosity (303.15 K, x1 = 0.2789): 2.101 ± 0.1 mPa·s
viscosity (303.15 K, x1 = 0.3759): 2.454 ± 0.1 mPa·s
viscosity (303.15 K, x1 = 0.4745): 2.795 ± 0.1 mPa·s
viscosity (303.15 K, x1 = 0.5763): 3.131 ± 0.1 mPa·s
viscosity (303.15 K, x1 = 0.6782): 3.446 ± 0.1 mPa·s
viscosity (303.15 K, x1 = 0.7852): 3.752 ± 0.1 mPa·s
viscosity (303.15 K, x1 = 0.8914): 4.022 ± 0.1 mPa·s
viscosity (303.15 K, x1 = 1): 4.255 ± 0.1 mPa·s
speed of sound (303.15 K, x1 = 0.0902): 1162.5 ± 7.1 m/s
speed of sound (303.15 K, x1 = 0.1842): 1191.5 ± 7.3 m/s
speed of sound (303.15 K, x1 = 0.2789): 1222.1 ± 7.5 m/s
speed of sound (303.15 K, x1 = 0.3759): 1255.1 ± 7.7 m/s
speed of sound (303.15 K, x1 = 0.4745): 1290.5 ± 7.9 m/s
speed of sound (303.15 K, x1 = 0.5763): 1329.2 ± 8.1 m/s
speed of sound (303.15 K, x1 = 0.6782): 1370.2 ± 8.4 m/s
speed of sound (303.15 K, x1 = 0.7852): 1416 ± 8.6 m/s
speed of sound (303.15 K, x1 = 0.8914): 1464.5 ± 8.9 m/s
speed of sound (303.15 K, x1 = 1): 1517.5 ± 9.3 m/s
mass density (303.15 K, x1 = 0.0902): 1457.14 ± 20 kg/m3
mass density (303.15 K, x1 = 0.1842): 1431.71 ± 20 kg/m3
mass density (303.15 K, x1 = 0.2789): 1406 ± 20 kg/m3
mass density (303.15 K, x1 = 0.3759): 1379.47 ± 20 kg/m3
mass density (303.15 K, x1 = 0.4745): 1352.34 ± 20 kg/m3
mass density (303.15 K, x1 = 0.5763): 1324.09 ± 20 kg/m3
mass density (303.15 K, x1 = 0.6782): 1295.62 ± 20 kg/m3
mass density (303.15 K, x1 = 0.7852): 1265.62 ± 20 kg/m3
mass density (303.15 K, x1 = 0.8914): 1235.79 ± 20 kg/m3
mass density (303.15 K, x1 = 1): 1205.32 ± 20 kg/m3
viscosity (308.15 K, x1 = 0.0902): 1.307 ± 0.1 mPa·s
viscosity (308.15 K, x1 = 0.1842): 1.65 ± 0.1 mPa·s
viscosity (308.15 K, x1 = 0.2789): 1.976 ± 0.1 mPa·s
viscosity (308.15 K, x1 = 0.3759): 2.291 ± 0.1 mPa·s
viscosity (308.15 K, x1 = 0.4745): 2.593 ± 0.1 mPa·s
viscosity (308.15 K, x1 = 0.5763): 2.888 ± 0.1 mPa·s
viscosity (308.15 K, x1 = 0.6782): 3.166 ± 0.1 mPa·s
viscosity (308.15 K, x1 = 0.7852): 3.427 ± 0.1 mPa·s
viscosity (308.15 K, x1 = 0.8914): 3.657 ± 0.1 mPa·s
viscosity (308.15 K, x1 = 1): 3.842 ± 0.1 mPa·s
speed of sound (308.15 K, x1 = 0.0902): 1148.3 ± 7 m/s
speed of sound (308.15 K, x1 = 0.1842): 1177.1 ± 7.2 m/s
speed of sound (308.15 K, x1 = 0.2789): 1207.4 ± 7.4 m/s
speed of sound (308.15 K, x1 = 0.3759): 1240.2 ± 7.6 m/s
speed of sound (308.15 K, x1 = 0.4745): 1275.4 ± 7.8 m/s
speed of sound (308.15 K, x1 = 0.5763): 1313.8 ± 8 m/s
speed of sound (308.15 K, x1 = 0.6782): 1354.7 ± 8.3 m/s
speed of sound (308.15 K, x1 = 0.7852): 1400.3 ± 8.6 m/s
speed of sound (308.15 K, x1 = 0.8914): 1448.6 ± 8.8 m/s
speed of sound (308.15 K, x1 = 1): 1501.2 ± 9.2 m/s
mass density (308.15 K, x1 = 0.0902): 1451.19 ± 20 kg/m3
mass density (308.15 K, x1 = 0.1842): 1425.93 ± 20 kg/m3
mass density (308.15 K, x1 = 0.2789): 1400.36 ± 20 kg/m3
mass density (308.15 K, x1 = 0.3759): 1373.99 ± 20 kg/m3
mass density (308.15 K, x1 = 0.4745): 1346.99 ± 20 kg/m3
mass density (308.15 K, x1 = 0.5763): 1318.91 ± 20 kg/m3
mass density (308.15 K, x1 = 0.6782): 1290.63 ± 20 kg/m3
mass density (308.15 K, x1 = 0.7852): 1260.78 ± 20 kg/m3
mass density (308.15 K, x1 = 0.8914): 1231.09 ± 20 kg/m3
mass density (308.15 K, x1 = 1): 1200.75 ± 20 kg/m3
viscosity (313.15 K, x1 = 0.0902): 1.223 ± 0.1 mPa·s
viscosity (313.15 K, x1 = 0.1842): 1.533 ± 0.1 mPa·s
viscosity (313.15 K, x1 = 0.2789): 1.826 ± 0.1 mPa·s
viscosity (313.15 K, x1 = 0.3759): 2.104 ± 0.1 mPa·s
viscosity (313.15 K, x1 = 0.4745): 2.372 ± 0.1 mPa·s
viscosity (313.15 K, x1 = 0.5763): 2.632 ± 0.1 mPa·s
viscosity (313.15 K, x1 = 0.6782): 2.876 ± 0.1 mPa·s
viscosity (313.15 K, x1 = 0.7852): 3.105 ± 0.1 mPa·s
viscosity (313.15 K, x1 = 0.8914): 3.293 ± 0.1 mPa·s
viscosity (313.15 K, x1 = 1): 3.43 ± 0.1 mPa·s
speed of sound (313.15 K, x1 = 0.0902): 1134.9 ± 6.9 m/s
speed of sound (313.15 K, x1 = 0.1842): 1163 ± 7.1 m/s
speed of sound (313.15 K, x1 = 0.2789): 1192.8 ± 7.3 m/s
speed of sound (313.15 K, x1 = 0.3759): 1224.9 ± 7.5 m/s
speed of sound (313.15 K, x1 = 0.4745): 1259.3 ± 7.7 m/s
speed of sound (313.15 K, x1 = 0.5763): 1296.9 ± 7.9 m/s
speed of sound (313.15 K, x1 = 0.6782): 1336.9 ± 8.2 m/s
speed of sound (313.15 K, x1 = 0.7852): 1381.6 ± 8.4 m/s
speed of sound (313.15 K, x1 = 0.8914): 1428.7 ± 8.7 m/s
speed of sound (313.15 K, x1 = 1): 1480.3 ± 9 m/s
mass density (313.15 K, x1 = 0.0902): 1444.19 ± 20 kg/m3
mass density (313.15 K, x1 = 0.1842): 1419.21 ± 20 kg/m3
mass density (313.15 K, x1 = 0.2789): 1393.88 ± 20 kg/m3
mass density (313.15 K, x1 = 0.3759): 1367.75 ± 20 kg/m3
mass density (313.15 K, x1 = 0.4745): 1340.99 ± 20 kg/m3
mass density (313.15 K, x1 = 0.5763): 1313.18 ± 20 kg/m3
mass density (313.15 K, x1 = 0.6782): 1285.16 ± 20 kg/m3
mass density (313.15 K, x1 = 0.7852): 1255.6 ± 20 kg/m3
mass density (313.15 K, x1 = 0.8914): 1226.16 ± 20 kg/m3
mass density (313.15 K, x1 = 1): 1196.02 ± 20 kg/m3
viscosity (318.15 K, x1 = 0.0902): 1.155 ± 0.1 mPa·s
viscosity (318.15 K, x1 = 0.1842): 1.437 ± 0.1 mPa·s
viscosity (318.15 K, x1 = 0.2789): 1.692 ± 0.1 mPa·s
viscosity (318.15 K, x1 = 0.3759): 1.934 ± 0.1 mPa·s
viscosity (318.15 K, x1 = 0.4745): 2.165 ± 0.1 mPa·s
viscosity (318.15 K, x1 = 0.5763): 2.388 ± 0.1 mPa·s
viscosity (318.15 K, x1 = 0.6782): 2.595 ± 0.1 mPa·s
viscosity (318.15 K, x1 = 0.7852): 2.786 ± 0.1 mPa·s
viscosity (318.15 K, x1 = 0.8914): 2.934 ± 0.1 mPa·s
viscosity (318.15 K, x1 = 1): 3.022 ± 0.1 mPa·s
speed of sound (318.15 K, x1 = 0.0902): 1124.6 ± 6.9 m/s
speed of sound (318.15 K, x1 = 0.1842): 1152.3 ± 7 m/s
speed of sound (318.15 K, x1 = 0.2789): 1181.7 ± 7.2 m/s
speed of sound (318.15 K, x1 = 0.3759): 1213.3 ± 7.4 m/s
speed of sound (318.15 K, x1 = 0.4745): 1247.3 ± 7.6 m/s
speed of sound (318.15 K, x1 = 0.5763): 1284.5 ± 7.8 m/s
speed of sound (318.15 K, x1 = 0.6782): 1324 ± 8.1 m/s
speed of sound (318.15 K, x1 = 0.7852): 1368 ± 8.3 m/s
speed of sound (318.15 K, x1 = 0.8914): 1414.5 ± 8.6 m/s
speed of sound (318.15 K, x1 = 1): 1464.8 ± 8.9 m/s
mass density (318.15 K, x1 = 0.0902): 1437.77 ± 20 kg/m3
mass density (318.15 K, x1 = 0.1842): 1412.99 ± 20 kg/m3
mass density (318.15 K, x1 = 0.2789): 1387.82 ± 20 kg/m3
mass density (318.15 K, x1 = 0.3759): 1361.85 ± 20 kg/m3
mass density (318.15 K, x1 = 0.4745): 1335.26 ± 20 kg/m3
mass density (318.15 K, x1 = 0.5763): 1307.62 ± 20 kg/m3
mass density (318.15 K, x1 = 0.6782): 1279.81 ± 20 kg/m3
mass density (318.15 K, x1 = 0.7852): 1250.46 ± 20 kg/m3
mass density (318.15 K, x1 = 0.8914): 1221.22 ± 20 kg/m3
mass density (318.15 K, x1 = 1): 1191.25 ± 20 kg/m3
